Experimental data reported in publication PMC10916400, “Effect of the aggregated protein dye YAT2150 on Leishmania parasite viability” (Antimicrobial Agents and Chemotherapy, 2024).

Key:
[1] = system: L. infantum promastigote cultures; assay: Protein aggregation assay in L. infantum cultures (ThT fluorescence); assay type: cell-based, Leishmania infantum; settings: 0.15 and 0.3 µM YAT2150, 90 min and 4 h, promastigote culture extracts
Description: Ten milliliters of L. infantum promastigote cultures in the logarithmic growth phase at a concentration of 10^7 cells/mL in T-25 flasks (SPL Life Sciences, Pochon, Kyonggi-do, South Korea) was either treated with 0.15 µM or 0.3 µM YAT2150 or left untreated. After 90 min and 4 h of incubation, 1 mL of each culture was washed (3×, 1 mL PBS, 600 × g, 3 min) and the parasite-containing pellets were taken up in 100 µL of 4.5 mg/mL NaCl supplemented with 1× cOmplete protease inhibitor cocktail (Roche, Basel, Switzerland) and incubated overnight at 4°C with gentle stirring. After this time, samples were spun down (2,000 × g, 10 s) and the protein in each supernatant was quantified with the Pierce BCA protein assay kit (Thermo Electron Corporation, Waltham, MA, US). In a 96-well flat bottom black plate (Greiner Bio-One), 2 µg of protein from each supernatant was diluted in a final volume of 100 µL PBS in duplicates. Protein aggregation was measured by the addition of 25 µM ThT to each well, and after a 15-min incubation with gentle stirring, ThT fluorescence emission intensity was measured as detailed above.

[2] = in vitro; assay type: cell-based; settings: human umbilical vein endothelial cells, 48 h
Description: Human umbilical vein endothelial cells were maintained in M-199 supplemented with 10% fetal bovine serum (FBS) and 1% penicillin-streptomycin at 37°C, 5% CO2, and seeded in 96-well plates at a density of 50,000 cells/mL. After allowing cell adherence for 24 h, the medium was removed, and drugs or nanoformulations were added in M-199 supplemented with 1% penicillin-streptomycin. Plates were incubated for 48 h, and then, the medium in each well was replaced by 100 µL of M-199 containing penicillin-streptomycin and 0.00125% resazurin sodium salt (Sigma-Aldrich Corporation). Plates were incubated for 4 h, and resorufin fluorescence emission was measured (λex/em: 535/590 nm) in a Tecan Infinite 200 PRO equipment (Tecan Trading AG).

[3] = Solubility screen assay (nephelometry); assay type: physicochemical; settings: PBS with 1% DMSO; read-out: Aqueous solubility
Description: The stock solutions (10^‒2 M) of the assayed compounds were diluted to decreased molarity, from 300 μM to 0.1 µM, in a 384-well transparent plate (Greiner Bio-One, Madrid, Spain) with DMSO:PBS (1:99 vol/vol). After 2 h of incubation at 37°C, the plate was read in a NEPHELOstar Plus nephelometer (BMG LABTECH GmbH, Ortenberg, Germany) at 635 nm. The results were adjusted to a segmented regression to obtain the maximum concentration at which the compounds were soluble.

[4] = Human microsomal stability assay; assay type: in vitro ADME; settings: 37°C
Description: The following components were added in a 96-well microplate in a final volume of 500 µL 50 mM Na/K phosphate buffer, pH 7.4 (stock solutions are indicated in parentheses, dissolved in the same buffer unless otherwise specified): […] NADP (10 mM), 10 µM glucose 6-phosphate (100 mM), […] glucose 6-phosphate dehydrogenase (40 U/mL, dissolved in 5 mM sodium citrate), 3 µM MgCl2·6 H2O (30 mM, dissolved in H2O), 0.8 mg protein/mL of human microsomes (10 mg/mL protein; XenoTech), and 1 µM of test compound (100 µM, dissolved in ACN). Plates were incubated at 37°C and 75 µL samples were taken at 0, 10, 20, 40, and 60 min, to which 75 µL ACN + internal standard (Rolipram) to inactivate the microsomes and 30 µL of 0.5% formic acid in H2O to improve the chromatographic conditions were added, and kept at 4°C. When all the samples were taken, the plate was centrifuged at 46,000 × g for 30 min at 15°C, and UPLC-MS/MS was performed as above, except for the time in 100% B from 1 to 2.5 min, the return to 95% A:5% B from 2.5 to 2.6 min, and the maintenance of this ratio from 2.6 to 3.0 min. Metabolic stability was calculated from the logarithm of the remaining compound at each of the times evaluated.

[5] = system: L. infantum amastigotes; assay: Amastigote growth inhibition assay (parasite rescue and transformation, RAW 264.7 macrophages); assay type: cell-based, Leishmania infantum; settings: in vitro
Description: Compound activity on amastigotes was determined following the parasite rescue and transformation assay ([61]). RAW 264.7 macrophages were seeded in 96-well microtiter plates at 10^5 cells/mL of DMEM supplemented with 10% FBS and 1% penicillin-streptomycin (complete DMEM, DMEMc) in a final volume of 200 µL per well. After an overnight incubation (37°C, 5% CO2) to allow cell adherence, the medium was removed and 10^6 L. infantum promastigotes/mL were added (1:10 macrophage:promastigote ratio) in DMEM supplemented with 2% FBS and 1% penicillin-streptomycin (DMEM 2% FBS). After 24 h, parasites not internalized by macrophages were removed by washing (3×, PBS) and dilutions in DMEM 2% FBS of free or liposome-encapsulated compounds were added. After 48 h, the medium was removed, cells were washed three times with PBS, and 40 µL of 0.05% SDS in complete Schneider’s medium was added; after 40 s, 160 additional µL/well of complete Schneider’s medium was added and plates were incubated at 26°C for another 48 h. Then, resazurin sodium salt was incorporated at a final concentration of 0.00125% and plates were incubated for 24 h more in the same conditions. Afterwards, resorufin fluorescence was measured as above.

SMILES: CCN(CC)c1ccc(/C=C/c2cc[n+](CCCCCCCCCC[n+]3ccc(/C=C/c4ccc(N(CC)CC)cc4)c(C)c3)cc2C)cc1 [YAT2150]
- overall aggregation of the parasite's proteins (ThT analysis) [1]: reduced
- CC50 [2]: 3400 ± 500 nM
- solubility at 2 h [3]: 8.5 µM
- t1/2, microsomal stability ([4]; human microsomes): 1.34 h
- remaining at 1 h, 1 µM ([4]; human, microsomes, pH 7.4, human microsomes, after 1 h): 55%
- half-life at 1 µM ([4]; human, microsomes, pH 7.4, human microsomes, read-out: t1/2, microsomal stability): 1.33 h
- microsomal CLint at 1 µM ([4]; pH 7.4, human microsomes): 10.6 µL/min/mg
- IC50 ([5]; L. infantum amastigotes in RAW 264.7 macrophages): 510 ± 110 nM
- IC50 ([5]; Leishmania infantum, RAW264.7, L. infantum amastigotes in RAW 264.7 macrophages): ~520 nM
